These results are taken from publication PMC9983021, “Novel GluN2B-Selective NMDA Receptor Negative Allosteric Modulator Possesses Intrinsic Analgesic Properties and Enhances Analgesia of Morphine in a Rodent Tail Flick Pain Model” (ACS Chemical Neuroscience, 2023).

Each structure is given as a SMILES string. pKi: −log10 of the molar value. Read-outs that look alike come from different tables or passages of the source.

Holding throughout (test): Radioligand binding assay (NIMH PDSP)
In one assay the target is 5-HT2B (Homo sapiens, UniProt P41595). As for the experimental part: (§1) Compound EU93-108 was also tested for inhibition of binding of probes to a range of GPCRs and other targets (Table 4 and Supporting Table S4). […] EU93-108 produced significant displacement of binding probes for the 5-HT2 receptors and α-1-adrenergic receptors, as well as D3, H1, and σ1 receptors. Concentration–response binding competition curves for these targets were used to determine Ki values (Table 4). Given that the brain concentration of EU93-108 achieved 30 min post i.p. injection is 18 μM (Figure 6), the doses that yield our desired antinociceptive effects may engage some of the receptors listed in Table 4.
Chain of 5-HT2B (P41595 whole entry): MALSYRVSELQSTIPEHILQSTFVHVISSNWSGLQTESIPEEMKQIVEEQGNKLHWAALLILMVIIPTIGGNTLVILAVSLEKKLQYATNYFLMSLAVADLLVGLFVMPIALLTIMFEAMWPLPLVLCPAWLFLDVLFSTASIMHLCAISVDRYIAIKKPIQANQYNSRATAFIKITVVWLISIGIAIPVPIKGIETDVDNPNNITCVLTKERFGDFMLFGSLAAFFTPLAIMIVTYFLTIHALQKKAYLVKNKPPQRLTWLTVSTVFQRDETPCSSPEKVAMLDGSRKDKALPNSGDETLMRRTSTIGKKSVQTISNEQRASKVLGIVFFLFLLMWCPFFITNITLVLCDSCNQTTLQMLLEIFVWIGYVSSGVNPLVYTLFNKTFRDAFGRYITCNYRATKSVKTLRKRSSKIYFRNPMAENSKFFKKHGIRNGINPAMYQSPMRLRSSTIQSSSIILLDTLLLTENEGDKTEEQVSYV
(§2) Conventional competition and saturation radioligand binding assays were used to determine the affinities of reference standards and EU93-108. Experiments were carried out by the NIMH Psychoactive Drug Screening Program (PDSP) and were performed as previously described.[123]
(§3) The detailed experimental protocols for the radioligand assays are available on the NIMH PDSP website at https://pdsp.unc.edu/pdspweb/content/UNC-CH%20Protocol%20Book.pdf.
(§4) Receptor Mean % Receptor Mean % Receptor Mean %
(§5) Inhibition Inhibition Inhibition
(§6) Supplemental Table S4. Off-Target Actions of EU93-108: Primary GPCR Screen. Cloned human molecular targets were individually expressed and submitted to molecular target-based screening with initial screens performed at a final concentration of 10 µM in quadruplicate. Complete protocols for the assays have been previously published (Besnard J et al. 2012). Where inhibition greater than 50% was measured, secondary screens were performed wherein Ki values were calculated (see Table 4).

In the next assay the target is T1, 5-HT2C (Homo sapiens, UniProt P28335).
T1 sequence (P28335 33-458): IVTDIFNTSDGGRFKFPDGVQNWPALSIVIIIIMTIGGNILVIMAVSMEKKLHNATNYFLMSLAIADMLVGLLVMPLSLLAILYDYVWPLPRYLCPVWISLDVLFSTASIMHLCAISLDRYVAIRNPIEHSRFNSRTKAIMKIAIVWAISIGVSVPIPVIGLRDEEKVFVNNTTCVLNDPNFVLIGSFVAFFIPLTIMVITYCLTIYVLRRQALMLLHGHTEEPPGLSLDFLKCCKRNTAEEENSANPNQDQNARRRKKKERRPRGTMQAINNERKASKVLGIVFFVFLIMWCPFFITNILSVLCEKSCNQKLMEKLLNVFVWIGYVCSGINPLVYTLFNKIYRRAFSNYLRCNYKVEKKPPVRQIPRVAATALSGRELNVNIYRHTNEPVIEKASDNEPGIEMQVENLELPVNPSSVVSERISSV
On the procedure: as §1, §2, §3, §4, §5, §6

The next assay deals with T2, Alpha1D (α1D) (Homo sapiens, UniProt P25100).
T2 sequence (P25100 1-572): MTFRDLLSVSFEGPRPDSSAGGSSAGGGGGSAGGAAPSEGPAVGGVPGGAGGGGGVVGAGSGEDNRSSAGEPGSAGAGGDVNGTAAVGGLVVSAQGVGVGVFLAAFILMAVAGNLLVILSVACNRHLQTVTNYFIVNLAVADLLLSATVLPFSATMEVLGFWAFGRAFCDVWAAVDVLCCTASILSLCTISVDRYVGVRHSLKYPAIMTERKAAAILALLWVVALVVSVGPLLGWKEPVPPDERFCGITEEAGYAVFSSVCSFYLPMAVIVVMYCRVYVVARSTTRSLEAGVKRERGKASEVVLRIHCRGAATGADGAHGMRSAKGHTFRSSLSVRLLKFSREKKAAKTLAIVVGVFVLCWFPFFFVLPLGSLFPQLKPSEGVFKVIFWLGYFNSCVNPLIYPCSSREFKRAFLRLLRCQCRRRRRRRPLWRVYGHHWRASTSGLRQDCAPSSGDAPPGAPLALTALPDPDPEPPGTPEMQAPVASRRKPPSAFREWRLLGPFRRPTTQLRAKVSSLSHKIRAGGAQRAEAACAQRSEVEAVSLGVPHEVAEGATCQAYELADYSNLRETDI
On the procedure: as §1, §2, §3, §4, §5, §6

The next assay addresses T3, Alpha2A (α2A) (Homo sapiens, UniProt P08913).
T3 sequence (P08913 1-465): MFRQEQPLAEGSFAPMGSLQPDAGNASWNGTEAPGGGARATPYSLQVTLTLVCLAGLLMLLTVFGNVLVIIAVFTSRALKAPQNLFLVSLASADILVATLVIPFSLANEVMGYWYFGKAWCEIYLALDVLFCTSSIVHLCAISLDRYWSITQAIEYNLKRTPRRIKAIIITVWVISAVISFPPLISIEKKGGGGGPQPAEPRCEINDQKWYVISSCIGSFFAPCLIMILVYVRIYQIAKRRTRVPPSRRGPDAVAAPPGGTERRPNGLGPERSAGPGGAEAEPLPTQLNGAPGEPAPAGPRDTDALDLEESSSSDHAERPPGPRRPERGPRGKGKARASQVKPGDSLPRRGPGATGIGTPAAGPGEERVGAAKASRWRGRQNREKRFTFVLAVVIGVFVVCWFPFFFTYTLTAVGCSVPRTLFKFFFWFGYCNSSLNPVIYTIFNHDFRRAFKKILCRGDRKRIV
As for the experimental part: as §1, §2, §3, §4, §5, §6

The target of another assay is T4, Alpha2C (α2C) (Homo sapiens, UniProt P18825).
T4 sequence (P18825 1-462): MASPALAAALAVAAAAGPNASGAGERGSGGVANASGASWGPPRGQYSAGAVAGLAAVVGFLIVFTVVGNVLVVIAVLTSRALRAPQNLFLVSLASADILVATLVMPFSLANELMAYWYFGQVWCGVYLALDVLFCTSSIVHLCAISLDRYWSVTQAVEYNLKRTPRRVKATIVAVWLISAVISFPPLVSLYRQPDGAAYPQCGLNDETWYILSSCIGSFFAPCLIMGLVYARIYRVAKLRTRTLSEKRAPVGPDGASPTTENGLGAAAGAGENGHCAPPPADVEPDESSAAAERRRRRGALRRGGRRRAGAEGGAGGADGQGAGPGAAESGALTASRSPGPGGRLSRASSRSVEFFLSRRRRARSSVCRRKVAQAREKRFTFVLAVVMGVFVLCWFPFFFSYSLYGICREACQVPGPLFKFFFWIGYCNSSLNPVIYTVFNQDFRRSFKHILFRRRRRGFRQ
As for the experimental part: as §1, §2, §3, §4, §5, §6

The target in a further assay is H1 (Homo sapiens, UniProt P35367). As for the experimental part: as §1, §2, §3, §4, §5, §6
Chain of H1 (P35367 whole entry): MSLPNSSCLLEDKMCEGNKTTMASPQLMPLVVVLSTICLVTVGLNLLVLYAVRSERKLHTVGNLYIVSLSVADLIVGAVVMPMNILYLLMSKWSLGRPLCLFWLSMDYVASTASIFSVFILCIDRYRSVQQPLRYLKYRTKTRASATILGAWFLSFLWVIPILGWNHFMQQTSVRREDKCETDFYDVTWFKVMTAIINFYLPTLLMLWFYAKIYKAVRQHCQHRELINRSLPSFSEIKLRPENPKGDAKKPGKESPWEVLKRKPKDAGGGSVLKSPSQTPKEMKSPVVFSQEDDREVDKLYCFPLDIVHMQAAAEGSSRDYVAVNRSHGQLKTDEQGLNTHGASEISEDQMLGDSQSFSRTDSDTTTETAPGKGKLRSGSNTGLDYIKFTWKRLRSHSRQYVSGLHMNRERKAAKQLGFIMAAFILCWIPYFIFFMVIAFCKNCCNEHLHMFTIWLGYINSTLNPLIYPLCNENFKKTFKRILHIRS
The mark [1] stands for this setting: primary screen, 10 µM, quadruplicate.
Setting [2] is: ratio of Ki to the IC50 for EU93-108 (555 nM) at GluN2B.
The mark [3] stands for this setting: secondary screen, binding competition curve.

Consider `CS(=O)(=O)Nc1ccc(OC[C@@H](O)CN2CCN(c3ccc(F)c(F)c3)CC2)cc1` [EU93-108, (S)-N-(4-(3-(4-(3,4-Difluorophenyl)piperazin-1-yl)-2-hydroxypropoxy)phenyl)methanesulfonamide], for which the inhibition (in general, the drop in the measured response relative to a control, in per cent) at 10 µM stood at 67.4% at 5-HT2B (setting [1]); 71.3% at 5-HT2C (setting [1]); 76.7% at Alpha1D (α1D) (setting [1]); 77.7% at Alpha2A (α2A) (setting [1]); 63% on Alpha2C (α2C) (setting [1]); 76.9% at H1 (setting [1]). Also, the “Ki/IC50 of EU93-108” value at 5-HT2B (setting [2]) worked out at 1.75; at 5-HT2C (setting [2]), 3.28; on Alpha1D (α1D) (setting [2]) it was 0.65; on Alpha2A (α2A) (setting [2]), 2.07; on Alpha2C (α2C) (setting [2]), 1.55; at H1 (setting [2]), 0.46. Further, the pKi (usually −log10 of the Ki, conventionally taken in molar units) at 5-HT2B (setting [3]) was 6.01; on 5-HT2C (setting [3]), 5.74; on Alpha1D (α1D) (setting [3]), 6.44; on Alpha2A (α2A) (setting [3]), 5.94; on Alpha2C (α2C) (setting [3]) it was 6.06; on H1 (secondary screen, binding competition curve, read-out: Ki), 6.60. For the same molecule, on H1 (secondary screen, binding competition curve, read-out: log(Ki) (converted)), the Ki (as a rule, the dissociation constant of the complex between target and ligand, obtained from inhibition or displacement) is 257 nM.
